Results on nine compounds are retold here after ChEMBL document CHEMBL1201862, “PubChem BioAssay data set” (2004).

Molecules are shown by their SMILES. Calls of active or inactive are those of the source.

Experiment [1] is described as follows: HEK-293T cell viability reduction – luminescence, B-cell screen hits, cytotoxicity control for BCR NF-kB inhibitor project, dose response (AID 489021).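 Also: HEK-293T cells carrying an NF-kB luciferase reporter; cells exposed to compound for about 14 hours before viability readout.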 It counts as functional, cell-based.
For a further experiment, the target named is Estrogen receptor beta (Homo sapiens, UniProt Q92731). Nature of the experiment: blockers of SRC-3 recruitment to ERβ – biochemical, ELISA, streptavidin-HRP readout, orthogonal assay, confirmation (AID 1060).
Estrogen receptor beta, sequence (Q92731 whole entry): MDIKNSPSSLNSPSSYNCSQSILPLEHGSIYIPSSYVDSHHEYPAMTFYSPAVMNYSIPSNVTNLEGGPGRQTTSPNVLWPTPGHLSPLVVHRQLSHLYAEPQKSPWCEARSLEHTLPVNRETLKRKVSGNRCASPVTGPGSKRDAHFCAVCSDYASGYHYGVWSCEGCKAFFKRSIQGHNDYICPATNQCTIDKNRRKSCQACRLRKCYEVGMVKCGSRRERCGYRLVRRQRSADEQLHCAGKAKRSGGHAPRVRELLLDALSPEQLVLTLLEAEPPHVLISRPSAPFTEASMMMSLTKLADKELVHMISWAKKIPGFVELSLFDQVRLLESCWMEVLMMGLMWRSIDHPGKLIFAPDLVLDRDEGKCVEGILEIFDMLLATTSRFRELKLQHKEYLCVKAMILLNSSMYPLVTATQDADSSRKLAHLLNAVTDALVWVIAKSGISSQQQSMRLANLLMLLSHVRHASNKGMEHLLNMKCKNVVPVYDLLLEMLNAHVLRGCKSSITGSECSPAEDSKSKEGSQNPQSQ
In experiment [2] the test system is HEK293. In words: cells. It counts as functional, cell-based. To be noted: Homo sapiens.
The test system of experiment [3] is HEK293. In words: cells. It counts as functional, cell-based. To be noted: Homo sapiens. This is another data set of the same source.
For experiment [4], the system named is HEK293. In words: cells. It counts as functional, cell-based. To be noted: Homo sapiens. The source holds these as a separate data set.
For experiment [5], the target named is Nucleotide-binding oligomerization domain-containing protein 2 (Homo sapiens, UniProt Q9HC29). Nature of the experiment: inhibition of NOD2-driven NF-kB reporter – cell-based, luminescence, uHTS, HEK293 (AID 1566). It counts as functional.
Nucleotide-binding oligomerization domain-containing protein 2, sequence (Q9HC29 whole entry, the tested form may be a part): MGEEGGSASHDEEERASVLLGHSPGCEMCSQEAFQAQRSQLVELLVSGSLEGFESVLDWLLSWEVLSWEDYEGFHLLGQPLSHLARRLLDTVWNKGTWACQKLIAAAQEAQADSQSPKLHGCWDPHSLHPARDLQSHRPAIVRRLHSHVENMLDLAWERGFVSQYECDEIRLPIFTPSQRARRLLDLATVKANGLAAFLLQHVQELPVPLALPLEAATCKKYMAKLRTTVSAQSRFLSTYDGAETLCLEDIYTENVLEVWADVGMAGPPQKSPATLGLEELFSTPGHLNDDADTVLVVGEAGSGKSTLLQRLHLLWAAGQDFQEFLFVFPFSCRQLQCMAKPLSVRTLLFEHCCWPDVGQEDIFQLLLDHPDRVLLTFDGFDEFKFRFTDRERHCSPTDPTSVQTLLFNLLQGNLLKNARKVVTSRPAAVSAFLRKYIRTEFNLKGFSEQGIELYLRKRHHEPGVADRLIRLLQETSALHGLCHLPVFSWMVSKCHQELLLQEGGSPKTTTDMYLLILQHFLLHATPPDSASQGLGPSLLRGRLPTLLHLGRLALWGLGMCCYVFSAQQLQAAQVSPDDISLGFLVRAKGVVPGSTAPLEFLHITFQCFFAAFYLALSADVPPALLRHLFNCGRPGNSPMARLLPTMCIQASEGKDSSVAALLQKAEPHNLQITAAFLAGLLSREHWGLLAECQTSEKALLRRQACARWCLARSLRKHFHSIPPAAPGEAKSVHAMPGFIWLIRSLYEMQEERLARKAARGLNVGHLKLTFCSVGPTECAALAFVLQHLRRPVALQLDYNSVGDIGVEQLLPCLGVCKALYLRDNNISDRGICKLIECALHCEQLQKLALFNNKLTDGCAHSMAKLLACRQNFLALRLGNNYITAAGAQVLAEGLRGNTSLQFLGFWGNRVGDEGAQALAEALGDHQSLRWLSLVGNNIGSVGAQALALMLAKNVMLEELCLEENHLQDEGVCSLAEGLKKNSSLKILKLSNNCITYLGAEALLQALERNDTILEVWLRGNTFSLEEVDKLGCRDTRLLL
In experiment [6] the test system is HEK293. Nature of the experiment: inhibition of NOD1-driven NF-kB reporter – cell-based, luminescence, uHTS, primary screen (AID 1578). To be noted: Homo sapiens. It counts as functional.
The subject of experiment [7] is HEK293. In words: NOD2 signaling inhibitors in MDP-stimulated cells, cell-based, uHTS, luminescence (AID 2001). It counts as functional. To be noted: Homo sapiens.
Experiment [8] addresses T1, Microphthalmia-associated transcription factor (Homo sapiens, UniProt O75030).
T1 sequence (O75030 whole entry): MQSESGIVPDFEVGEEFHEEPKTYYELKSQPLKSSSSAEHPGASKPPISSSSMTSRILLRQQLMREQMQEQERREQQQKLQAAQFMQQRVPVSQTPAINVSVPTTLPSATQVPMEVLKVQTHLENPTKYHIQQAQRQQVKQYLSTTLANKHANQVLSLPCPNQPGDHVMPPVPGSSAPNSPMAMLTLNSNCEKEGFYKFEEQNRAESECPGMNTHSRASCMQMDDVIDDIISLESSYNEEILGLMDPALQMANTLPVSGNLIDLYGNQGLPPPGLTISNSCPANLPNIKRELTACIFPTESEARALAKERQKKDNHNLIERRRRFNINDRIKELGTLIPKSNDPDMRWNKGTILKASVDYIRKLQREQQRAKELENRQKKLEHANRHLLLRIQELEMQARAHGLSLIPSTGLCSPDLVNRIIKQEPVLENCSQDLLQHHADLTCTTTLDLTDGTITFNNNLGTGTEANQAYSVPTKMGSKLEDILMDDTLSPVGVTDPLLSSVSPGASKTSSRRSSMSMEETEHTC
In words: reducers of TRPM1 reporter luminescence, concentration series – cell-based, SK-MEL-5, cherry-picked, set 3, MITF inhibitor project, dose response (AID 493073).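 Also: SK-MEL-5 melanoma cells with luciferase driven by the MITF target TRPM1 promoter.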 It counts as functional.

The next experiment deals with Cytochrome P450 3A4 (Homo sapiens, UniProt P08684). To be noted: Potency.
Cytochrome P450 3A4, sequence (P08684 whole entry): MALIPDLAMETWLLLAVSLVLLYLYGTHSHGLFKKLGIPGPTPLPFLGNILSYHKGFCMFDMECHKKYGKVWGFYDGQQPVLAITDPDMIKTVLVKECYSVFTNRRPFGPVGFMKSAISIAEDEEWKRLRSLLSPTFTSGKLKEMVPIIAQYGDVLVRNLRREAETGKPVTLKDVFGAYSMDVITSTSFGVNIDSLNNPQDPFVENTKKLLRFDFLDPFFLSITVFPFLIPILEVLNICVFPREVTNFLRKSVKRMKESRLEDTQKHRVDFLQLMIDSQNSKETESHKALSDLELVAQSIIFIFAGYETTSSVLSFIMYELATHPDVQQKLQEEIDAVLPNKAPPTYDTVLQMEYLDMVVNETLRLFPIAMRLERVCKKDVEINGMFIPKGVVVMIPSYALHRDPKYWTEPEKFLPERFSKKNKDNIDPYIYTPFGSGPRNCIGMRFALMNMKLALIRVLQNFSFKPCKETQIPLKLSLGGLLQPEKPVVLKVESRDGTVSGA
The target in experiment [9] is G-protein coupled receptor 55 (Homo sapiens, UniProt Q9Y2T6). Nature of the experiment: selective activators of receptor GPR55 – imaging, U2OS cells, beta-arrestin-GFP redistribution, primary screen (AID 1961). It counts as functional.
G-protein coupled receptor 55, sequence (Q9Y2T6 whole entry): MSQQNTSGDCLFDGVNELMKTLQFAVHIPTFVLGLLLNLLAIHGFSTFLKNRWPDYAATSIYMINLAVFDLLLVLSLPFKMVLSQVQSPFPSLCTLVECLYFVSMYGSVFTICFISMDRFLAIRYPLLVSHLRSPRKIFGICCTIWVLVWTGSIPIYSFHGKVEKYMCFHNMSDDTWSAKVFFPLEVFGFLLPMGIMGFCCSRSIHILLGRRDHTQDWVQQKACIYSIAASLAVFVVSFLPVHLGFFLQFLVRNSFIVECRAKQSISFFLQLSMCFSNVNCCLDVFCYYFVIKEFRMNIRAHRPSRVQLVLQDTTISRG
The test system of experiment [10] is BJ. In words: BJ-TERT fibroblast viability loss – cell-based, RAS-independent, luminescence, dose response (AID 1933). It counts as functional. To be noted: Homo sapiens.
Experiment [11] concerns BJ. Nature of the experiment: BJ-TERT-LT-ST fibroblast viability loss – cell-based, RAS-independent, luminescence, dose response (AID 1935).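 Also: BJ fibroblasts immortalized with TERT plus LT and ST oncogenes.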 It counts as functional. To be noted: Homo sapiens.
Experiment [12] relates to BJ. Nature of the experiment: growth inhibition of engineered Ras-driven BJ cells – cell-based, alamar blue fluorescence, cherrypicked samples, dose response (AID 2631).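 Also: confirmatory dose-response assay in RAS-dependent BJ fibroblasts engineered with TERT, LT and ST, with cytotoxicity read by fluorescence.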 It counts as functional. To be noted: Homo sapiens. (The colour change of resazurin is a common sign of viable cells or microbes.)
Experiment [13] in a line: DRD fibroblast viability loss – cell-based, non-viral oncogenic, luminescence, dose response (AID 1934). It counts as functional. To be noted: Homo sapiens.
The subject of experiment [14] is BJ. In words: cells. It counts as functional, cell-based. To be noted: Homo sapiens.
Experiment [15] is described as follows: viability loss in Vero cells – cytotoxicity control for Vif-APOBEC3G degradation inhibitor project, dose response (AID 1117358). It counts as functional. To be noted: Vero.
For experiment [16], the target named is T2, Ubiquitin-conjugating enzyme E2 N (Homo sapiens, UniProt P61088).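 Also: Dose-response confirmation in a TR-FRET assay detecting UBC13-driven polyubiquitin chain formation, inhibition measured.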
T2 sequence (P61088 whole entry): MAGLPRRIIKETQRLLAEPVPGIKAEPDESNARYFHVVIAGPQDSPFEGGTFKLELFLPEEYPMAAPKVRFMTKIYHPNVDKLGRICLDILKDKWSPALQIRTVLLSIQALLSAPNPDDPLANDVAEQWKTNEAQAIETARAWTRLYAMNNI
It counts as functional.

One may read the IC50 as the point on the concentration scale where inhibition reaches its midpoint. For orientation: EC50 means the midpoint of the concentration-response curve. The term AC50 denotes the midpoint of the concentration-response curve, whichever way the signal moves. A word on the CC50: it is the concentration that lowers cell viability or growth by half.

As for `CCn1c(S)nc2cc(S(=O)(=O)N3CCCCC3)ccc21`, the IC50 in experiment [1] was > 80 µM (inactive).
Take `O=C(Nc1ccc2c(c1)OCO2)c1cc2ncc(Br)cn2n1`: the IC50 against Estrogen receptor beta was < 0.023 µM (not active).
`COc1ccc(/C=C2\SC(=S)N(CCCC(=O)NNC(=O)c3ccccc3O)C2=O)cc1`: the IC50 is 5.39 µM (active) in the experiment on HEK293 [2]; > 20 µM (inactive) with HEK293 [3]; > 20 µM (inactive) in the experiment on HEK293 [4]; 5.62 µM (active) with HEK293 [7]; > 80 µM (inactive) in experiment [1]. In addition, the EC50 in [5] was > 20 µM (inactive); in the experiment on HEK293 [6], 8.29 µM (active). The half-maximal activity concentration (AC50) in experiment [8] is 1.38 µM (active).
As for `FC(F)(F)c1ccc(C2[C@H]3CN(Cc4ccc(-c5ccccc5)cc4)[C@H](c4ccccc4)C34CC2(c2cccnc2)C4)cc1` (some centres not stated), the half-maximal activity concentration (AC50) on Cytochrome P450 3A4 is 15.8 µM (inconclusive).
As for `CCOC(=O)[C@]1(C(NC(=O)OC)c2ccccc2)CCCC1=O` (some centres not stated), the AC50 on Cytochrome P450 3A4 was 2.51 µM (inconclusive).
Turning to `COc1ccccc1-n1cnc2cc(NCc3cccs3)ccc21`, the concentration for a half-maximal effect (EC50) in experiment [9] was 2.87 µM (active); in the experiment with BJ [10], 8.39 µM (inconclusive); with BJ [11], 11 µM (inconclusive); in the experiment with BJ [12] it was 0.248 µM (active); in [13] it was 4.55 µM (active); in the experiment with BJ [14], 20.5 µM (active). The CC50 in experiment [15] was > 40 µM (active).
Turning to `CCC(=O)NC(C)c1cc(Cl)c2ccccc2c1O` (configuration not stated), the IC50 in experiment [16] was > 20 µM (inactive).
For `COc1ccc(C)cc1NC(=O)c1sc2ncnc(N3CCN(c4ccccn4)CC3)c2c1C`, the IC50 with HEK293 [2], in the experiment on HEK293 [3], in the experiment on HEK293 [4] and with HEK293 [7] was > 20 µM (inactive) each time. Also, the EC50 (in experiment [5]; with HEK293 [6]) was > 20 µM (inactive) each time.
In the case of `COC(=O)c1cccc(C23CC4(C2)[C@H](CN(CC2CCCCC2)[C@@H]4c2ccccc2)C3c2ccc(C(F)(F)F)cc2)c1` (some centres not stated), the half-maximal activity concentration (AC50) at Cytochrome P450 3A4 is 15.8 µM (inconclusive).
